# According to ChEMBL document CHEMBL5291721, “A preclinical secondary pharmacology resource illuminates target-adverse drug reaction associations of marketed drugs” (Nat Commun, 2023):
# Where a SMILES comes first, the peptide text is derived from it. [ ]: non-standard residue; d: D form. pGlu = O=C1CC[C@@H](C(=O)O)N1; Thz = O=C(O)[C@@H]1CSCN1
# What was measured:
# [1] = molecular target: T1, Alpha-1A adrenergic receptor (Homo sapiens, UniProt P35348); type: functional, cell-based
# T1 sequence (P35348 whole entry): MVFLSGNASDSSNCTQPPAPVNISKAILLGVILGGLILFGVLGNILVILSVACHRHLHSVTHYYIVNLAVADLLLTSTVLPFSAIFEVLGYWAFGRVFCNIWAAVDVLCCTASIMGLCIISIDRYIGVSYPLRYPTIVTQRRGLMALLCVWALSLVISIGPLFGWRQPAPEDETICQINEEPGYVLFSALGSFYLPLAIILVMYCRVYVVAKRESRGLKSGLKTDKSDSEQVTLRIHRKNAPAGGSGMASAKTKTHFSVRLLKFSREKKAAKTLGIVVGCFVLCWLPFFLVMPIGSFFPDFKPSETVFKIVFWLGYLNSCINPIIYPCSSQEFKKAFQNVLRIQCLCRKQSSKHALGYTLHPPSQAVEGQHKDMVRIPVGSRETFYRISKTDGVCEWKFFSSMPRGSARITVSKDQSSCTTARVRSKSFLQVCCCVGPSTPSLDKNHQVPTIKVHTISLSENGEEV
# [2] = molecular target: Gamma-aminobutyric acid receptor subunit alpha-1 (Rattus norvegicus, UniProt P62813); type: functional
# Chain of Gamma-aminobutyric acid receptor subunit alpha-1 (P62813 whole entry): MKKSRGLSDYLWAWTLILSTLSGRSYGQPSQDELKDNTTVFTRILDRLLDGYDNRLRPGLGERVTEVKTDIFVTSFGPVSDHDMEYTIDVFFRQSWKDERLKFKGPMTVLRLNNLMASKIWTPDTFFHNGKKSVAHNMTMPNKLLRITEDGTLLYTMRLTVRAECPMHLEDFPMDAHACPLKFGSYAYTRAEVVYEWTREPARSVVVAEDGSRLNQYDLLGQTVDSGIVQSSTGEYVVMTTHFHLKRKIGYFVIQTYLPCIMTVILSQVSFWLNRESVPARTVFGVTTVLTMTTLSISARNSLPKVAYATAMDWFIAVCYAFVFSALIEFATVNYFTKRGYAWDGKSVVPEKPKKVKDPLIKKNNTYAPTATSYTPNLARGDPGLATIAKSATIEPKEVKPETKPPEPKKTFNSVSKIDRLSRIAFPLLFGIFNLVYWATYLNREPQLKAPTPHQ
# [3] = molecular target: Growth hormone secretagogue receptor type 1 (Homo sapiens, UniProt Q92847)
# Chain of Growth hormone secretagogue receptor type 1 (Q92847 whole entry): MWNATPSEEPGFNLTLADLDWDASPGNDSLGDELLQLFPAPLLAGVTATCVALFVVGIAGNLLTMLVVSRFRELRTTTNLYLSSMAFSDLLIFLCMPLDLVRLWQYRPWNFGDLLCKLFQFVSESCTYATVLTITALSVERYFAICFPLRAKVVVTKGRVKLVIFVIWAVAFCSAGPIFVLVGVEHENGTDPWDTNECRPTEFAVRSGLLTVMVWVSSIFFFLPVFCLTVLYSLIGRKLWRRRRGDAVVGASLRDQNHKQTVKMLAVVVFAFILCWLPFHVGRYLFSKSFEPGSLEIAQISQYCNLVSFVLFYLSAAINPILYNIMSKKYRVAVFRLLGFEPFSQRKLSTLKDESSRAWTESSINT
# [4] = molecular target: T2, 5-hydroxytryptamine receptor 3A (Homo sapiens, UniProt P46098); type: functional
# T2 sequence (P46098 whole entry): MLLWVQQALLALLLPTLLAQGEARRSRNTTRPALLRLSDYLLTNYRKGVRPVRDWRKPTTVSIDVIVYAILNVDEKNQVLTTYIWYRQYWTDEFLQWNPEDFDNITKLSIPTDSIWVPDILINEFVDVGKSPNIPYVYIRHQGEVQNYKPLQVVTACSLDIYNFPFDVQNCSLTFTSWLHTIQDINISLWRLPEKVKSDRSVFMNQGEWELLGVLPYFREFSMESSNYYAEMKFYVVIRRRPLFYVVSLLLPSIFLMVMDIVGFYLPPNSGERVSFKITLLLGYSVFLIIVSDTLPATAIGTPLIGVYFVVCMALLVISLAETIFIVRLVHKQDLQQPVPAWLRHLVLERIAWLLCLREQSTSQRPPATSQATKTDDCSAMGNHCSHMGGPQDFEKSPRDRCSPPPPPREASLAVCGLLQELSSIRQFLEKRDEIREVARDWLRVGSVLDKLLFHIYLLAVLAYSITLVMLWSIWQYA
# Melanocortin receptor 3 = Melanocortin receptor 3 (Homo sapiens, UniProt P41968)
# Chain of Melanocortin receptor 3 (P41968 whole entry): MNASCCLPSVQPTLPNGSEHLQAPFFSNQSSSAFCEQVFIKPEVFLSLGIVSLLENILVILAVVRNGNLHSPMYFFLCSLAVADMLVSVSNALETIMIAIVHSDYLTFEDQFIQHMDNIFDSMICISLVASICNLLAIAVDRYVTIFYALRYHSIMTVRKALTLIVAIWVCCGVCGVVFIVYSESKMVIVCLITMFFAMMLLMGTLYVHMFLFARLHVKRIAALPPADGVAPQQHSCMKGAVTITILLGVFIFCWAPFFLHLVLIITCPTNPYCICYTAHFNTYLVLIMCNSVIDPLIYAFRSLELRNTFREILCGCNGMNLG
# Motilin receptor = Motilin receptor (Homo sapiens, UniProt O43193)
# Chain of Motilin receptor (O43193 whole entry): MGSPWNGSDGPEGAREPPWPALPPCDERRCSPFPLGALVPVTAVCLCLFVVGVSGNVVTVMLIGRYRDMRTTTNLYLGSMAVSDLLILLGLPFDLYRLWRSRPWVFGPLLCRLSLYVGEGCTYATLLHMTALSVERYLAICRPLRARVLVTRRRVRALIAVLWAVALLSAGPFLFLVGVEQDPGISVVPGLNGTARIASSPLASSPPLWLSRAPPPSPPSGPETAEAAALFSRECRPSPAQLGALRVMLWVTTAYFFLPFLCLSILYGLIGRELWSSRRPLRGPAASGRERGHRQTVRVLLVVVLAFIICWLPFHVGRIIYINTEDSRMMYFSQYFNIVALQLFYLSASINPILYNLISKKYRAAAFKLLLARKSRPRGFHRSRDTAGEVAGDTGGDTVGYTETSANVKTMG
# [5] = molecular target: T3, Prostaglandin G/H synthase 1 (Rattus norvegicus, UniProt Q63921); type: functional
# T3 sequence (Q63921 whole entry): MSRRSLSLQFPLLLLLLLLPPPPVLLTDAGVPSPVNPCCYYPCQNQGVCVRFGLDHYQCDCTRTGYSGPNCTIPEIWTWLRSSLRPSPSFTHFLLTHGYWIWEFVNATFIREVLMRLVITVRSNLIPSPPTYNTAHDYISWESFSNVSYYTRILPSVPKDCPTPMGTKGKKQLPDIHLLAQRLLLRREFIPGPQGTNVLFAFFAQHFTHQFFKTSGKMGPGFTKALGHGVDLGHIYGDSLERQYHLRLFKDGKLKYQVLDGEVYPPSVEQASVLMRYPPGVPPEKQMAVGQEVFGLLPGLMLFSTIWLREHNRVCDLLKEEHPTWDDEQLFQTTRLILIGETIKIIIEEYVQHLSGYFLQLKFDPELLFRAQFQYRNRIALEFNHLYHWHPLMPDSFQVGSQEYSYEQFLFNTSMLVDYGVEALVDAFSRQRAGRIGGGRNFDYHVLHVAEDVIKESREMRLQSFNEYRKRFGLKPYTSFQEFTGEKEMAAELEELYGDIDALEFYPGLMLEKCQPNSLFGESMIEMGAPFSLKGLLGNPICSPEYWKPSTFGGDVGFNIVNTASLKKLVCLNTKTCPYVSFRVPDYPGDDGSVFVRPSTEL
# [6] = molecular target: T4, Equilibrative nucleoside transporter 1 (Homo sapiens, UniProt Q99808)
# T4 sequence (Q99808 whole entry): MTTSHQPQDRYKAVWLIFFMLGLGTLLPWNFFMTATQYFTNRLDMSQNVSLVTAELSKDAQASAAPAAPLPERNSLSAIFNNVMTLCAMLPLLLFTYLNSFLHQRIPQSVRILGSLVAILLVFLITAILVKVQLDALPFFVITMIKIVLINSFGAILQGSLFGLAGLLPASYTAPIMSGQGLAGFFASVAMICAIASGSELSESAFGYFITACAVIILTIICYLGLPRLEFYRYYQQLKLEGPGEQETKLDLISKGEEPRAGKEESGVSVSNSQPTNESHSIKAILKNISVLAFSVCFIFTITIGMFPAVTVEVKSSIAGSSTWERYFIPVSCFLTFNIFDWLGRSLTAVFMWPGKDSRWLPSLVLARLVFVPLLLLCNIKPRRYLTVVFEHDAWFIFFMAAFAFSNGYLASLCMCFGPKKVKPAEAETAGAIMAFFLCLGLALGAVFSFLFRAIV
# Thromboxane A2 receptor = molecular target: T5, Thromboxane A2 receptor (Homo sapiens, UniProt P21731)
# T5 sequence (P21731 whole entry): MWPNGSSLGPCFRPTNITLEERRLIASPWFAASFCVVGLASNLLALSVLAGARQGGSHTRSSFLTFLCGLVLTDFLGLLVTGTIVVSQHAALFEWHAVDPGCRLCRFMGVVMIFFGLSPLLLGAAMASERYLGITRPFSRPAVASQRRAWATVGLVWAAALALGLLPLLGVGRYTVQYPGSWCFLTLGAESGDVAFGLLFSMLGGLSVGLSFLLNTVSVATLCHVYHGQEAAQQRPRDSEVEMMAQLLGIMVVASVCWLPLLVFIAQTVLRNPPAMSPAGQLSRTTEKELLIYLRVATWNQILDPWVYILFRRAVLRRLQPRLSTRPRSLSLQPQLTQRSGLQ
# Also: assay procedure not described here.
SMILES,AC50 [1] [µM],AC50 [2] [µM],AC50 [3] [µM],AC50 [4] [µM],AC50 (Melanocortin receptor 3) [µM],AC50 (Motilin receptor) [µM],AC50 [5] [µM],AC50 [6] [µM],AC50 (Thromboxane A2 receptor) [µM]
COc1cc(N)c(Cl)cc1C(=O)NC1CCN(CCCOc2ccc(F)cc2)CC1OC (stereo not given) [CISAPRIDE],> 30,> 10,> 30,> 30,> 30,1.8,> 30,> 30,22.9
CC(CN(C)C)C(C)(O)Cc1ccc(Cl)cc1 (stereo not given) [CLOBUTINOL],> 30,> 10,> 30,> 30,> 30,> 10,> 30,> 30,> 30
CCOC(=O)C(C)(C)Oc1ccc(Cl)cc1 [CLOFIBRATE],> 30,> 10,> 30,> 30,> 30,> 10,> 30,> 30,> 30
Oc1ccc(CCNCCCCCCNCCc2ccccc2)cc1O [DOPEXAMINE],> 30,> 30,> 30,> 30,> 30,> 30,> 30,> 30,> 30
CCN1CC(CCN2CCOCC2)C(c2ccccc2)(c2ccccc2)C1=O (stereo not given) [DOXAPRAM],> 30,> 30,> 30,> 30,> 30,> 30,> 30,> 30,> 30
CCCCOc1ccc(C(=O)CCN2CCCCC2)cc1 [DYCLONINE],> 30,> 10,> 30,> 10,> 30,> 10,> 30,> 30,> 30
CCc1cc2c(s1)-n1c(C)nnc1CN=C2c1ccccc1Cl [ETIZOLAM],> 30,0.0091,> 30,> 30,> 30,> 30,> 30,> 30,> 30
CC/C=C\C/C=C\C/C=C\C/C=C\C/C=C\CCCC(=O)OCC [ICOSAPENT ETHYL],> 30,> 30,> 30,> 30,> 30,> 30,2.4,> 30,> 30
NNC(=O)c1ccncc1 [ISONIAZID],> 30,> 30,> 30,> 30,> 30,> 30,> 30,> 30,> 30
COc1ccc(CN2CCN(C(c3ccc(F)cc3)c3ccc(F)cc3)CC2)c(OC)c1OC [LOMERIZINE],> 30,> 30,27,> 30,> 30,> 30,> 30,> 30,> 30
O=C1Nc2ccc(Cl)cc2C(c2ccccc2Cl)=NC1O (stereo not given) [LORAZEPAM],> 30,0.0074,> 30,> 30,> 30,> 10,> 30,> 30,> 30
CC(=O)[C@H]1CC[C@H]2[C@@H]3C[C@H](C)C4=CC(=O)CC[C@]4(C)[C@H]3[C@@H](O)C[C@]12C [MEDRYSONE],> 30,> 10,> 10,> 30,> 10,> 10,> 10,> 10,> 10
COc1ccc2cc(CCC(C)=O)ccc2c1 [NABUMETONE],> 30,> 10,> 10,> 30,> 10,> 10,> 10,> 30,> 10
Cc1ccnc2c1NC(=O)c1cccnc1N2C1CC1 [NEVIRAPINE],> 30,> 10,> 30,> 10,> 30,> 10,> 30,> 30,> 30
O=C(NCCO[N+](=O)[O-])c1cccnc1 [NICORANDIL],> 30,> 30,> 30,> 30,> 30,> 30,> 30,> 30,> 30
COc1cc2[nH]c(C)c(CCN3CCN(c4ccccc4)CC3)c2cc1OC [OXYPERTINE],> 30,> 30,> 30,> 30,> 30,> 30,> 30,> 30,> 30
c1ccc(C2(N3CCCCC3)CCCCC2)cc1 [PHENCYCLIDINE],> 30,> 30,> 30,> 30,> 30,> 30,> 30,> 30,> 30
OC[C@H]1O[C@@H](Oc2cc(O)cc(/C=C/c3ccc(O)cc3)c2)[C@H](O)[C@@H](O)[C@@H]1O [PICEID],> 30,> 30,> 30,> 30,> 30,> 30,4.4,> 30,> 30
O=C1CC[C@@H](C(=O)N2CSC[C@H]2C(=O)O)N1 [PIDOTIMOD] ([pGlu]-[Thz]-OH),> 30,> 30,> 30,> 30,> 30,> 30,> 30,> 30,> 30
COc1cc(C(=O)OCc2cccc(COC(=O)c3cc(OC)c(OC)c(OC)c3)n2)cc(OC)c1OC [PIROZADIL],> 30,> 30,> 30,> 30,> 30,> 30,> 30,> 30,> 30
